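Interpolation was linear, between the two tested concentrations surrounding the appropriate level; five concentrations were tested over 48 hours in 96-well plates. GI50 is the concentration that inhibits growth by half.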 Activity calls are given as the source filed them. Rule as the data show it: active = GI50 up to about 1.1 µM and inactive = higher.

Test systems include UACC-257; RPMI-8226; NCI/ADR-RES; T47D; EKVX; SK-MEL-2; SNB-75; LOX IMVI; PC-3; MCF7; HCT-116; HCC 2998; HOP-92; HOP-18; NCI-H460; COLO 205; NCI-H522; MDA-MB-435; NCI-H23; HL-60.
Holding throughout (experiment): inhibition of tumour cell growth, NCI panel, 48 h

For `Cc1nc(N)nc(N)c1-c1ccc(Cl)c(Cl)c1` [METOPRINE], the GI50 in the experiment on UACC-257 was 3850 nM (inactive); in the experiment with RPMI-8226 it was 6280 nM (inactive); in the experiment with NCI/ADR-RES, 1100 nM (active); with T47D it was 16900 nM (inactive); in the experiment on EKVX, 4470 nM (inactive); in the experiment on SK-MEL-2 it was 30800 nM (inactive). The GI50 with SNB-75 was 11500 nM (inactive); in the experiment on LOX IMVI, 54 nM (active); in the experiment on PC-3 it was 78.5 nM (active); with MCF7 it was 826 nM (active); in the experiment on HCT-116 it was 39.9 nM (active); with HCC 2998, 2910 nM (inactive). Further, the GI50 in the experiment with HOP-92 was 7600 nM (inactive); with HOP-18, 25800 nM (inactive); with NCI-H460, 23.9 nM (active); with COLO 205, 10400 nM (inactive); in the experiment with NCI-H522, 785 nM (active); in the experiment with MDA-MB-435, 356 nM (active). Also, the results for the GI50 in the experiment with NCI-H23 and in the experiment on HL-60 were 378 nM (active) and 130 nM (active), respectively.
